Legend:
[1] = system: Balb/c mice sensitized with ovalbumin (acute allergic asthma); assay: Ovalbumin-sensitized mice, allergic asthma model, intranasal ectoine solution; type: in vivo; details: 50 μl intranasal, 14 treatments day 0 to 32, compared to 0.9% salt solution
Experimental: Seven-months-old mice of the inbred strain Balb/c were sensitized by injecting them intraperitoneally with a mixture of ovalbumin and aluminum hydroxide contained in a total volume of 200 μl buffer (PBS). The injection was made twice, once on day 0 and once on day 14. The size of each group tested was n=8.
In order to subsequently induce the allergic reaction in the lungs of the mice, i.e. s to trigger the acute allergic asthma, the mice were treated inhalatively with an ovalbumin aerosol for 30 minutes each on days 28 and 38. For this purpose, the mice were placed in a plexiglass chamber, into which a misty 1% OVA solution was introduced through an inhaler.
For ectoine treatment, the animals were anesthetized with a mixture of ketamine and rompune. 50 μl of a sterile ectoine solution or 0.9% salt solution was applied in front of the nostrils with glass capillaries until the solution was completed inhaled. The treatments—14 in all—started on day 0. The last treatment was administered on day 32.
The end points of the study were defined as the bronchial hyperreactivity as measured with a plethysmograph, the b ronchoalveolar lavage (BAL) cellular composition and the release of OVA-specific igE and igG1 antibodies.

[2] = system: ICAM-1 expression; assay: Inhibition of ICAM-1 expression by ectoine (RT-PCR, UVA radiation); type: cell-based; details: ceratinzytes pre-incubated for 24 h with 1 mM ectoine, UVA 30 J/cm^2, RT-PCR relative to β-actin
Experimental: ICAM-1 expression was measured using differential reverse transcriptase-PCR (RT-PCR) and the Applied Biosystem Kit. To take account of the normal variations in the gene expression of skin cells, ICAM-1 expression is put into relationship to the constitutively formed house-keeping gene, β-actin. The semi-quantitive analysis of RT-PCR was performed by ion exchange chromatography using a UV spectrophotometer (A260). (A) Non-pretreated, radiated control sample (B) pre-incubated for 24 h with 1 mM RonaCare™ Ectoin and radiated with a single dose of 30 J/cm^2 or (C) pre-incubated for 24 h with 1 mM ectoine, non-irradiated. UVA radiation induces upregulation of ICAM-1 expression.

[3] = system: rats sensitized to ovalbumin (OVA), late allergic reaction; assay: Ovalbumin-induced allergic asthma in rats, late allergic reaction (hyperreactivity, BAL); type: in vivo; details: 24 h after the ovalbumin challenge, acetyl-choline hyperreactivity and BAL cell counts, compared to negative control group
Text: (§1) The study population consisted of 4 treatment groups, a reference group, a sham-sensitized and vehicle-treated negative control group, and a vehicle-treated positive control group. The group size was n=16.
In the first phase of the study, all animals, except for the sham-sensitized group, were systemically sensitized to ovalbumin (OVA) plus adjuvants, the negative control group was given NaCl. On days 7 and 14, the animals were intratracheally boosted with OVA (to enhance the sensitizing effect). […] The two control groups were given only NaCl. After expiry of the waiting period, the animals were anesthetized, orotracheally intubated in a gentle manner and—after placement of an oesophagus catheter and allowing the mice to reach a steady state—their lung functions (including such parameters as tidal volume, breathing frequency, dynamic compliance and lung resistance) were measured body-plethysmographically prior to provocation. The data was collected and evaluated using a computer program (HEM, Notocord/France) specifically developed for these lung function tests.
The late allergic phase was tested 24 h after the ovalbumin challenge. First the animals were tested for airway hyperreactivity to unspecific stimuli. […] Using the lavage liquid, the total and the differential cell counts were determined including the number of esinophiles in the BAL.

[4] = system: rats sensitized to ovalbumin (OVA), early allergic reaction; assay: Ovalbumin-induced allergic asthma in rats, early allergic reaction (lung function); type: in vivo; details: intratracheal pretreatment 48 h, 24 h and 2 h before ovalbumin challenge, in comparison to the negative control
Text: as §1
In the first phase of the study, all animals, except for the sham-sensitized group, were systemically sensitized to ovalbumin (OVA) plus adjuvants, the negative control group was given NaCl. On days 7 and 14, the animals were intratracheally boosted with OVA (to enhance the sensitizing effect). 48 h, 24 h and 2 h before the final inhalative allergen exposure was performed, three groups and a positive control group were subjected to an intratracheal pretreatment with the test substance, ectoine, at three dosage levels. […] After expiry of the waiting period, the animals were anesthetized, orotracheally intubated in a gentle manner and—after placement of an oesophagus catheter and allowing the mice to reach a steady state—their lung functions (including such parameters as tidal volume, breathing frequency, dynamic compliance and lung resistance) were measured body-plethysmographically prior to provocation. The data was collected and evaluated using a computer program (HEM, Notocord/France) specifically developed for these lung function tests.
The lung function parameters were continuously recorded during and after exposure in order to measure bronchospasm.

[5] = system: ICAM-1 expression; assay: Reduction of ICAM-1 expression by DGP in UVA-irradiated ceratinozytes; type: cell-based; details: Human ceratinozytes pretreated with DGP for 24 hours, UVA radiation
Experimental: Human ceratinozytes were pretreated with DGP for 24 hours. After radiation using UVA rays (environment noxes) the quantity of ICAM-1 was measured.

Row | Compound | effect on bronchial hyperreactivity, BAL cellular composition and release of OVA-specific igE and igG1 antibodies [1] | ICAM-1 induction caused by UVA radiation [2] | effect on the late allergic reaction [3] | effect on lung function parameters (early allergic reaction, bronchospasm) [4] | inhibition of ICAM-1 expression [5] [%]
1 | CC1=NCC[C@@H](C(=O)O)N1 [ectoine] | significant positive effect | almost completely neutralize | positive effect | significant positive effect | 
2 | O=P(O)(OCC(O)CO)OCC(O)CO (centres unmarked) [DGP, 1,1-diglycerol phosphate] |  |  |  |  | 49

Reference: patent publication US20110053896A1, “OSMOLYTES FOR THE TREATMENT OF ALLERGIC OR VIRAL RESPIRATORY DISEASES” (priority 2007, published 2011)
